Source: patent US10456397B2, “Covalent inhibitors of CDK-7” (Newave Pharmaceutical Inc., priority 2015, dated 2019)
Where “and” joins values, the source holds several entries; their conditions need not be identical. Equal entries are not always repeated. Where two headings read alike, the source gives them in different places.

Columns and labels:
[1] = biological target: T1, CDK7 (Homo sapiens, UniProt P50613); test: KINOMEscan CDK7 binding constant (Kd) determination; settings: KINOMEscan competition binding, 11-point 3-fold dilution
T1 construct: made in house; host or cells: E. coli BL21-derived host (T7 phage) or HEK-293
T1 sequence (P50613 whole entry): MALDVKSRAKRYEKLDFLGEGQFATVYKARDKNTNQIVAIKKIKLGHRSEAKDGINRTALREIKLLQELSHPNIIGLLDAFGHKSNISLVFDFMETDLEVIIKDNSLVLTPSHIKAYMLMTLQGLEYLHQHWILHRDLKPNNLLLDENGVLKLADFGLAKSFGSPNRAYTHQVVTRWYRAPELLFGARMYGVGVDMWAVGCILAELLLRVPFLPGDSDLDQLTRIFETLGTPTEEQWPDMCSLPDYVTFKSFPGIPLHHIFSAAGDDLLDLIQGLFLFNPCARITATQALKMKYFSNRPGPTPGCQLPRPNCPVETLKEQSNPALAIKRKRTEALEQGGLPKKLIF

[2] = system: DMS 114; test: In vitro anti-proliferation assay (ATPlite); assay type: cell-based; settings: SCLC cell line DMS 114, about 72 hours, read-out: anti-proliferative IC50
Protocol: (§1) Cell antiproliferation is assayed by PerkinElmer ATPlite™ Luminescence Assay System. Briefly, the various test cancer cell lines are plated at a density of about 1×10^4 cells per well in Costar 96-well plates, and are incubated with different concentrations of compounds for about 72 hours in medium supplemented with 5% FBS. One lyophilized substrate solution vial is then reconstituted by adding 5 mL of substrate buffer solution, and is agitated gently until the solution is homogeneous. About 50 μL of mammalian cell lysis solution is added to 100 μL of cell suspension per well of a microplate, and the plate is shaken for about five minutes in an orbital shaker at ˜700 rpm. This procedure is used to lyse the cells and to stabilize the ATP. Next, 50 μL substrate solution is added to the wells and microplate is shaken for five minutes in an orbital shaker at ˜700 rpm. Finally, the luminescence is measured by a PerkinElmer TopCount® Microplate Scintillation Counter.
(§2) As shown in the following table, the CY-16-1 has potent anticancer activity in small cell lung cancer (SCLC) cell lines. Cisplatin, the first line treatment of SCLC, was used as a reference drug in this assay: […]

[3] = system: NCI-H446; test: In vitro anti-proliferation assay (ATPlite); assay type: cell-based; settings: SCLC cell line NCI-H446, about 72 hours, read-out: anti-proliferative IC50
Protocol: as §1, §2

[4] = system: NCI-H82; test: In vitro anti-proliferation assay (ATPlite); assay type: cell-based; settings: SCLC cell line NCI-H82, about 72 hours, read-out: anti-proliferative IC50
Protocol: as §1, §2

[5] = system: NCI-H69; test: In vitro anti-proliferation assay (ATPlite); assay type: cell-based; settings: SCLC cell line NCI-H69, about 72 hours, read-out: anti-proliferative IC50
Protocol: as §1, §2

[6] = system: NCI-H209; test: In vitro anti-proliferation assay (ATPlite); assay type: cell-based; settings: SCLC cell line NCI-H209, about 72 hours, read-out: anti-proliferative IC50
Protocol: as §1, §2

[7] = biological target: CDK7/CycH/MAT1 (Homo sapiens, UniProt P50613); test: In vitro irreversible dialysis assay; assay type: biochemical; settings: 700 nM compound pre-incubated 2 h with 50 nM enzyme, dialyzed 24 h at RT
Chain of CDK7/CycH/MAT1 (P50613 whole entry): as above
Chain of CDK7/CycH/MAT1 (P51946 whole entry partner): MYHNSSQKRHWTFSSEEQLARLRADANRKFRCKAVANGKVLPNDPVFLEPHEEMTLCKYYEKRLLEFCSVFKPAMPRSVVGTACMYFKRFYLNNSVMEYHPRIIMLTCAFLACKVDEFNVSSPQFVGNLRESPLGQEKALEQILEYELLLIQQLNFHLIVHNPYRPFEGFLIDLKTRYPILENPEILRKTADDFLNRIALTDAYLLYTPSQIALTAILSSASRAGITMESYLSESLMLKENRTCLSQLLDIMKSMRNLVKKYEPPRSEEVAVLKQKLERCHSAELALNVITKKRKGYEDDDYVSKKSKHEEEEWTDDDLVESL
Chain of CDK7/CycH/MAT1 (P51948 whole entry partner): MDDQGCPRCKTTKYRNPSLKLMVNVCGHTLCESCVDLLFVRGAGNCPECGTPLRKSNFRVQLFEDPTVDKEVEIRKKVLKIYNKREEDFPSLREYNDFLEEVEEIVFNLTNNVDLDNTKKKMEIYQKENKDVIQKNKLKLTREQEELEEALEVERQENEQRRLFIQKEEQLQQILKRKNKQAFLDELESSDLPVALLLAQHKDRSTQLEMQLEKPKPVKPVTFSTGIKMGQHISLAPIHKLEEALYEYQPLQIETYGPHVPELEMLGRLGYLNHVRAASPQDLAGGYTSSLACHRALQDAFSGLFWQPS
Protocol: 700 nM CY-16-1 compound was pre-incubated with 50 nM CDK7/CycH/MAT1 enzyme for 2 h in a buffer comprising: 100 mM HEPES pH7.5, 0.1% BSA, 5 mM MgCl2, 1 mM DTT, 0.01% Triton X-100 and dialyzed at RT against the same buffer for a total time of 24 h (3 changes of the dialysis buffer, nominal cumulative dialysis factor: 30,000). Control samples included: DMSO+50 nM CDK7 dialyzed in the identical manner Un-dialyzed samples with compound were assembled and incubated for 24 h at RT. Following dialysis, the CDK7 activity was measured in real-time format in the presence of 100 uM ATP and 1 uM substrate peptide. Initial velocity was determined in the samples.

[8] = biological target: CDK7/cyclinH1/MNAT1 (Homo sapiens, UniProt P50613); test: Inhibition of CDK-7 enzymatic activity (p33 ATP radiometric assay)
Chain of CDK7/cyclinH1/MNAT1 (P50613 whole entry): as the sequence (P50613 whole entry) above
Chain of CDK7/cyclinH1/MNAT1 (P51946 whole entry partner): as the sequence (P51946 whole entry partner) above
Chain of CDK7/cyclinH1/MNAT1 (P51948 whole entry partner): as the sequence (P51948 whole entry partner) above

Kd [1] [nM] | IC50 ([3]; Homo sapiens) [nM] | IC50 ([4]; Homo sapiens) [nM] | IC50 ([5]; Homo sapiens, NCI-H69, 72 h) [nM] | IC50 ([6]; Homo sapiens) [nM] | Reversibility of CDK7 inhibition after dialysis [7] | IC50 [8] [nM] | SMILES | IC50 ([2]; Homo sapiens) [nM] | IC50 [5] | IC50 [2] [nM] | IC50 [3] [nM] | IC50 [4] [nM] | IC50 [6] [nM]
< 1 | 19 | 28 | 32 | 30 | irreversible inhibitor of CDK7 | < 15 | C=CC(=O)Nc1ccc(C(=O)Nc2cc3cc(c2)Nc2nccc(n2)-c2cccc(c2)OCC/C=C/CN(C)C3)cc1 [CY-16-1] | 29 | 18 nM | – | – | – | –
– | – | – | – | – | – | – | N.N.[Cl][Pt][Cl] [Cisplatin, reference compound] | – | 7000 nM and 7700 nM | 5950 | 7450 | 4510 | 274
